Measurements: patent US20250057808A1, “COMPOSITION COMPRISING BETA LACTAM FOR TREATING ALCOHOL DEPENDENCE AND ALCOHOL ASSOCIATED DISEASES OR CONDITIONS” (Temple University of the Commonwealth System of Higher …, priority 2023, published 2025)
Entries after “also recorded” stand apart in the source; their conditions may differ.

How the values were obtained:
GLT-1 [1] = assay: Immunoblot GLT-1 in mPFC-IL, mPFC-PL, NAc-core, NAc-shell (section B); format: in vivo, Male and female alcohol-preferring (P) rats; conditions: 100 mg/kg i.p. 5 days
Method: After 24 hours of receiving the last injection, rats were euthanized by CO2 inhalation followed by decapitation with a guillotine. Brains were harvested and immediately frozen on dry ice and stored at −80° C. Cryostat (Leica) was used to isolate the mPFC subregions (mPFC-IL and mPFC-PL), and subregions of the NAc (NAc-core and NAc-shell). Brains were micro-punctured using the stereotaxic coordinates following the Rat Brain Atlas. The isolated brain regions were stored at −80° C. for subsequent protein detection using Western Blot assay.
Immunoblot assays were performed to determine the expression of GLT-1, xCT and β-tubulin in mPFC-IL, mPFC-PL, NAc-core, and NAc-shell of all groups as described previously. Briefly, brain samples were homogenized in lysis buffer supplemented with protease inhibitor and total protein was quantified using protein assay (Bio-Rad, Hercules, CA, USA). Equal amount of the samples was loaded on polyacrylamide gel (10-20%).
Subsequently, proteins were transferred on a PVDF membrane and blocked with 5% milk in Tris-buffered saline Tween-20 (1×TBST) for 30 minutes at room temperature. Membranes were then incubated overnight at 4° C. with one of the following antibodies: rabbit anti-GLT-1 (1:1000, Abcam, AB41621), and/or rabbit anti-xCT (1:1000, Abcam, AB175186). Mouse anti-β-tubulin (1:1000; Cell Signaling D71G5) was used as a loading control antibody. On the following day, membranes were washed five times with 1×TBST followed by incubation with appropriate secondary antibody (1:4000) for 60 minutes at room temperature. Chemiluminescent reagents (Super Signal West Pico, Pierce Inc.) were used to detect proteins using a ChemiDoc imaging system (BioRad, USA).
GLT-1 and xCT expression were normalized against β-tubulin, a control loading protein. Imaging System and ImageJ software version 1.53a were used to quantify and analyze the expression of GLT-1 and xCT in the subregions of the mPFC and NAc. Data from water-control group were represented as 100% and all other values were expressed relative to this control to evaluate the changes in protein expression.
The ratios for treated animals in the ethanol/saline and ethanol/MC-100093 groups were normalized to the mean ratios for the control group (water/saline group). The control ratio was set at 100, and the results from each of the treated groups were expressed as a percentage relative to the water/saline group value of 100%. We normalized the ethanol/saline and ethanol/MC-100093 groups data to water/saline group to reduce any differences of contrast with Western blots for each set of groups (control/water/saline, ethanol/saline, and ethanol/MC-100093 groups).
All statistical analyses were conducted using GraphPad Prism (10). Two-way (mixed) ANOVA followed by Bonferroni multiple comparison post-hoc test was performed to analyze daily ethanol intake, average daily water intake and body weight. One-way ANOVA followed by Newman-Keuls post hoc tests were used to analyze Western blot data. All statistical analyses data were reported as a p<0.05 of significance.

GLT-1 [2] = assay: Western blot GLT-1 expression in NAc-core, NAc-shell and liver (50 mg/kg study); format: in vivo, P rats; conditions: MC-100093 50 mg/kg or ceftriaxone 200 mg/kg i.p. 5 days; for Protein expression of GLT-1 in the NAc-shell: vs Ethanol group
Method: We used micro-punch procedure to dissect the subregions of the NAc such as NAc-core and NAc-shell as well as the subregions of prefrontal cortex such as infralimbic (IL) and prelimbic (PL) from the brain on day 6 after the last injection day. P rats were removed from the cage and rapidly euthanized by CO2 inhalation followed by rapid decapitation with a guillotine. Brains were isolated and immediately frozen on dry ice and stored at −80° C. The stereotaxic coordinates provided by Paxinos and colleague's rat brain stereotactic atlas was used to isolate NAc-core and NAc-shell using a cryostat apparatus (−20° C.), which then kept at −80° C. for later western blot analyses.
Western Blot assay was performed to measure changes in the expression of GLT-1, xCT, mGluR1, mGluR5, PPAR-α, PPARγ, GAPDH and β-tubulin in the NAc-core and NAc-shell as described in previous publications. A lysis buffer containing protease and phosphatase inhibitors was used to generate a homogenate of liver, Nac-core, and Nac-shell samples. The amount of protein was quantified using a detergent compatible protein assay (Bio-Rad, Hercules, CA, USA) for each sample. Samples were mixed with laemmli dye and loaded with equal amounts on polyacrylamide gels (10%), which separated the proteins using electrophoresis. After that, polyvinylidene difluoride (PVDF) membranes were used to transfer the proteins electrophoretically from the gels. Membranes were incubated in 5% free-fat milk in Tris-buffered saline with Tween-20 (TBST) for 30-60 minutes at room temperature. Membranes were then incubated with appropriate primary antibodies overnight at 4° C.: rabbit anti-GLT-1 (1:5000, Abcam, ab41621), rabbit anti-xCT (1:2000, Abcam, ab175186), rabbit anti-mGluR1 (1:1000, Abcam, ab82211), rabbit anti-mGluR5 (1:1000, Abcam, ab76316), rabbit anti-PPAR-α (1:1000, Abcam, ab24509), and rabbit anti-PPARγ (1:1000, Abcam, ab209350). Mouse anti-β-tubulin (1:1000; BioLegend) was used as a loading control antibody for the brain samples and rabbit anti-GAPDH (1:5000; cell signaling) was used as a loading control antibody for the liver samples. Membranes were washed five times on the next day with TBST followed by incubation with appropriate secondary antibody (1:5000) for 90 minutes at room temperature. Chemiluminescent reagents (Super Signal West Pico, Pierce Inc.) were used to detect the proteins using a GeneSys imaging system to develop the digitized blot images. Water-control group data were represented as 100% and all other values were expressed relative to control group to detect changes in the expression of the protein of interest in the brain and liver samples.
All statistical analyses were conducted with Graphpad Prism software, with p-values of 0.05 or less being statistically significant. We performed a two-way (mixed model) ANOVA followed by Bonferroni multiple comparison post-hoc test to analyze 24 h ethanol consumption, 24 h water consumption, and daily body weight. For the Western blot and oil red O staining analysis, we performed one-way ANOVA with Newman-Keuls as a post hoc multiple comparison test to measure differences between groups as a percentage (relative to control values).

[3] = female P rats, vs ethanol-saline and water-saline
[4] = male P rats, vs ethanol-saline and water-saline

C[C@@H](O)[C@H]1C(=O)N[C@@H]1[C@@H](C)C(=O)N1CCN(C)CC1 [MC-100093]
GLT-1 expression in the NAc-core (GLT-1 [1]; female P rats): significant upregulation of GLT-1 expression | GLT-1 expression in the NAc-shell (GLT-1 [1]; female P rats): significant upregulation of GLT-1 expression | GLT-1 expression in the mPFC-IL (GLT-1 [1]; [3]): upregulated GLT-1 expression | GLT-1 expression in the mPFC-PL (GLT-1 [1]; [3]): significant upregulation of GLT-1 expression | GLT-1 expression in mPFC and NAc subregions (summary) (GLT-1 [1]; female and male P rats, vs ethanol-saline groups, 100 mg/kg): upregulated GLT-1 and xCT expression in mPFC and NAc subregions; also recorded: increasing GLT-1 and xCT expression in the mPFC and NAc subregions | GLT-1 expression in the mPFC-IL (GLT-1 [1]; male P rats): attenuated ethanol-induced downregulation of GLT-1 expression | GLT-1 expression in the NAc-core (GLT-1 [1]; [4]): significantly increased | GLT-1 expression in the NAc-shell (GLT-1 [1]; [4]): significantly increased | GLT-1 expression in the mPFC-PL (GLT-1 [1]; male P rats, vs ethanol-saline and water-saline, 100 mg/kg): significantly upregulated GLT-1 expression; also recorded: significantly increased | Protein expression of GLT-1 in the liver (GLT-1 [2]): normalized GLT-1 level; also recorded: normalize the PPAR-α and GLT-1 levels in the liver | Protein expression of GLT-1 in the NAc-core (GLT-1 [2]; among Control, Ethanol, Ethanol-MC, Ethanol-CEF): non-significant difference; also recorded: no significant difference | Protein expression of GLT-1 in the NAc-shell (GLT-1 [2]): normalized GLT-1 and xCT levels in the NAc-shell | Protein expression of GLT-1 in the NAc-shell (GLT-1 [2]; listed as MC-100095): significantly increased
